Source: patent publication US5665738A, “Imidazole derivatives and processes for the preparation thereof” (Korea Research Institute of Chemical Technology, priority 1994, dated 1997)

Tested on: angiotensin II receptor
Assay: Angiotensin II receptor binding assay ([3H] angiotensin II displacement)
Conditions: 60 minutes at 25° C., pH 7.2, test concentration not given
Experimental: The inventive compounds were tested to measure their angiotensin II receptor binding capacity as follows.
1. Angiotensin II receptor binding assay
In accordance with the procedure disclosed in Chiu, A. T. et al., Eur. J. Pharm., 157, 13 ([…])t a ligand marked with a radioistope was reacted with an angiotensin II receptor and the reactant was filtered with a glass fiber to remove unreacted ligand. After washing the filter, the amount of the remaining isotope was measured to determine the binding activity of the ligand, as described below in detail.
(i) Isolation of angiotensin II receptor
Sprague-Dawley rats and Wistar rats of 250 to 350 g (from The Korea Research Institute of Chemical Technology) were tested and the test procedures were carried out at 4° C., unless otherwise specified. Adrenal gland was separated from the Sprague-Dawley rats (liver, in the case of Wistar rats) into cortex and medulla. The separated adrenal cortex and medulla were washed with a sucrose buffer solution (0.2M sucrose, 1 mM EDTA, 10 mM Tris, pH 7.2) and homogenized in the same buffer solution by using a Teflon pestle and a Brinkmann homogenizer. The homogenates were centrifuged at 3,000× g for 10 minutes to remove precipitates and further centrifuged at 12,000× g for 13 minutes. The final supernatants were centrifuged at 102,000× g for 1 hour to obtain precipitates, which were washed with a Tris buffer solution (50 mM Tris, 5 mM MgCl2, pH 7.2) and re-centrifuged at 102,000× g for 1 hour. The resulting precipitates were immediately processed at the following step or stored at -70° C.
The precipitates were suspended in a Tris buffer solution. The amount of protein was determined by using a Bio-Rad DC protein analyzing kit and the protein concentration was adjusted to the amounts of: 0.2 to 0.3 mg/ml (Sprague-Dawley rat: adrenal cortex), 1.5 to 2.0 mg/ml (Sprague-Dawley rat: adrenal medulla), and 1.5 to 2.0 mg/ml (Wistar rat: liver). To the suspension, bovine serum albumin (BSA) was added to a concentration of 0.25 wt % and the resultant was immediately processed at the following step or stored at -70° C.
(ii) Measurement of angiotensin II receptor binding capacity
50 μl (based on ligand) of [^3 H] angiotensin II (NEN, NET-446) and 10 μl of each of the test compounds with various concentrations were added to the buffer solution (50 mM Tris (pH 7.2), 5 mM MgCl2, 0.25% BSA) to adjust the final volume to be 0.5 ml. Losartan (Dup 753), which is disclosed in EP No. 400,974 issued to Merck, was used as the control compound. 100 μl of the receptor suspension was added thereto and the resulting solution was reacted for 60 minutes while stirring in a water bath at 25° C. 3 ml of cold buffer solution for analysis was added to cease the reaction. The isotope which was bound to the receptor was isolated from the resultant by using Brandel Cell Harvester System with Whatman glass fiber GF/C. After washing the filter, the radioactivity of the filter was determined by using a liquid scintillation counter. Binding inhibition (%) of the test compound was calculated as follows:
Binding Inhibition (%)=[{(T-B)-(S-B)}/(T-B)]×100
wherein T is the radioactivity (cpm) of the reaction product untreated with the test compound, S is the radioactivity (cpm) of the reaction product treated with the test compound, and B is the radioactivity (cpm) of blank test.

Row | SMILES | Binding Inhibition (%)
1 | CCCCc1nc(Cl)c(C(=O)c2cccc(C(OC)OC)[n+]2[O-])n1Cc1ccc(-c2ccccc2-c2nn[nH]n2)cc1 [Compound 1, {2-butyl-5-chloro-3-[(2'-(1H-tetrazol-5-yl)biphenyl-4-yl)methyl]-3H-imidazol-4-yl}[6-(dimethoxymethyl)-1-oxypyridin-2-yl]methanone] | 91.1%
2 | CCCCc1nc(Cl)c(C(=O)c2cccc(C=O)[n+]2[O-])n1Cc1ccc(-c2ccccc2-c2nn[nH]n2)cc1 [Compound 2, {2-butyl-5-chloro-3-[(2'-(1H-tetrazol-5-yl)biphenyl-4-yl)methyl]-3H-imidazol-4-yl}(6-formyl-1-oxypyridin-2-yl)methanone] | 95.0%
3 | CCCCc1nc(Cl)c(C(=O)c2cccc(CO)[n+]2[O-])n1Cc1ccc(-c2ccccc2-c2nn[nH]n2)cc1 [Compound 3, {2-butyl-5-chloro-3-[(2'-(1H-tetrazol-5-yl)biphenyl-4-yl)methyl]-3H-imidazol-4-yl}(6-hydroxymethyl-1-oxypyridin-2-yl)methanone] | 96.3%
4 | CCCCc1nc(Cl)c(C(O)c2cccc(C(OC)OC)n2)n1Cc1ccc(-c2ccccc2-c2nnn[nH]2)cc1 (centres unmarked) [Compound 4, {2-butyl-5-chloro-3-[(2'-(1H-tetrazol-5-yl)biphenyl-4-yl)methyl]-3H-imidazol-4-yl}[6-(dimethoxymethyl)pyridin-2-yl]methanol] | 71.2%
5 | CCCCc1nc(Cl)c(C(O)c2cccc(C=O)n2)n1Cc1ccc(-c2ccccc2-c2nnn[nH]2)cc1 (centres unmarked) [Compound 5, {2-butyl-5-chloro-3-[(2'-(1H-tetrazol-5-yl)biphenyl-4-yl)methyl]-3H-imidazol-4-yl}(6-formylpyridin-2-yl)methanol] | 64.9%
6 | CCCCc1nc(Cl)c(C(=O)c2cccc(C(OC)OC)n2)n1Cc1ccc(-c2ccccc2-c2nnn[nH]2)cc1 [Compound 6, {2-butyl-5-chloro-3-[(2'-(1H-tetrazol-5-yl)biphenyl-4-yl)methyl]-3H-imidazol-4-yl}[6-(dimethoxymethyl)pyridin-2-yl]methanone] | 91.2%
7 | CCCCc1nc(Cl)c(C(=O)c2cccc(C=O)n2)n1Cc1ccc(-c2ccccc2-c2nnn[nH]2)cc1 [Compound 7, {2-butyl-5-chloro-3-[(2'-(1H-tetrazol-5-yl)biphenyl-4-yl)methyl]-3H-imidazol-4-yl}(6-formylpyridin-2-yl)methanone] | 79.8%
8 | CCCCc1nc(Cl)c(C(=O)c2cccc(CO)n2)n1Cc1ccc(-c2ccccc2-c2nnn[nH]2)cc1 [Compound 8, {2-butyl-5-chloro-3-[(2'-(1H-tetrazol-5-yl)biphenyl-4-yl)methyl]-3H-imidazol-4-yl}[6-(hydroxymethyl)pyridin-2-yl]methanone] | 68.9%
9 | CCCCc1nc(Cl)c(C(O)c2cccc(CN(CC)CC)[n+]2[O-])n1Cc1ccc(-c2ccccc2-c2nn[nH]n2)cc1 (centres unmarked) [Compound 9, {2-butyl-5-chloro-3-[(2'-(1H-tetrazol-5-yl)biphenyl-4-yl)methyl]-3H-imidazol-4-yl}[6-(diethylamino)methyl-1-oxypyridin-2-yl]methanol] | 30.5%
10 | CCCCc1nc(Cl)c(C(=O)c2cccc(CN(CC)CC)[n+]2[O-])n1Cc1ccc(-c2ccccc2-c2nn[nH]n2)cc1 [Compound 10, {2-butyl-5-chloro-3-[(2'-(1H-tetrazol-5-yl)biphenyl-4-yl)methyl]-3H-imidazol-4-yl}[6-(diethylamino)methyl-1-oxypyridin-2-yl]methanone] | 91.1%
11 | CCCCc1nc(Cl)c(C(=O)c2cccc(C[N+]([O-])(CC)CC)[n+]2[O-])n1Cc1ccc(-c2ccccc2-c2nn[nH]n2)cc1 [Compound 11, {2-butyl-5-chloro-3-[(2'-(1H-tetrazol-5-yl)biphenyl-4-yl)methyl]-3H-imidazol-4-yl}[6-((diethyl)(oxy)amino)methyl-1-oxypyridin-2-yl]methanone] | 99.9%
12 | CCCCc1nc(Cl)c(C(O)c2cccc(CN(CC)CC)n2)n1Cc1ccc(-c2ccccc2-c2nnn[nH]2)cc1 (centres unmarked) [Compound 12, {2-butyl-5-chloro-3-[(2'-(1H-tetrazol-5-yl)biphenyl-4-yl)methyl]-3H-imidazol-4-yl}[6-((diethylamino)methyl)pyridin-2-yl]methanol] | 63.2%
13 | CCCCc1nc(Cl)c(C(=O)c2cccc(CN(CC)CC)n2)n1Cc1ccc(-c2ccccc2-c2nnn[nH]2)cc1 [Compound 13, {2-butyl-5-chloro-3-[(2'-(1H-tetrazol-5-yl)biphenyl-4-yl)methyl]-3H-imidazol-4-yl}[6-((diethylamino)methyl)pyridin-2-yl]methanone] | 90.5%
14 | CCCCc1nc(Cl)c(C(=O)c2cccc(C[N+]([O-])(CC)CC)n2)n1Cc1ccc(-c2ccccc2-c2nn[nH]n2)cc1 [Compound 14, {2-butyl-5-chloro-3-[(2'-(1H-tetrazol-5-yl)biphenyl-4-yl)methyl]-3H-imidazol-4-yl}[6-[((diethyl)(oxy)amino)methyl]pyridin-2-yl]methanone] | 92.1%
15 | CCCCc1nc(Cl)c(C(=O)c2cccc(Br)[n+]2[O-])n1Cc1ccc(-c2ccccc2-c2nn[nH]n2)cc1 [Compound 15, {2-butyl-5-chloro-3-[(2'-(1H-tetrazol-5-yl)biphenyl-4-yl)methyl]-3H-imidazol-4-yl}(6-bromo-1-oxypyridin-2-yl)methanone] | 88.6%
16 | CCCCc1nc(Cl)c(C(O)c2cccc(Br)[n+]2[O-])n1Cc1ccc(-c2ccccc2-c2nn[nH]n2)cc1 (centres unmarked) [Compound 16] | 62.9%
17 | CCCCc1nc(Cl)c(C(=O)c2cccc(Br)n2)n1Cc1ccc(-c2ccccc2-c2nnn[nH]2)cc1 [Compound 17, {2-butyl-5-chloro-3-[(2'-(1H-tetrazol-5-yl)biphenyl-4-yl)methyl]-3H-imidazol-4-yl}(6-bromopyridin-2-yl)methanone] | 50.3%
18 | CCCCc1nc(Cl)c(C(O)c2cccc(Br)n2)n1Cc1ccc(-c2ccccc2-c2nnn[nH]2)cc1 (centres unmarked) [Compound 18, {2-butyl-5-chloro-3-[(2'-(1H-tetrazol-5-yl)biphenyl-4-yl)methyl]-3H-imidazol-4-yl}(6-bromopyridin-2-yl)methanol] | 57.1%
19 | CCCCc1nc(Cl)c(C(=O)c2cccc(C(C)O)[n+]2[O-])n1Cc1ccc(-c2ccccc2-c2nn[nH]n2)cc1 (centres unmarked) [Compound 19, {2-butyl-5-chloro-3-[(2'-(1H-tetrazol-5-yl)biphenyl-4-yl)methyl]-3H-imidazol-4-yl}[6-(1-hydroxyethyl)-1-oxypyridin-2-yl]methanone] | 88.7%
20 | CCCCc1nc(Cl)c(C(=O)c2cccc(C(C)=O)[n+]2[O-])n1Cc1ccc(-c2ccccc2-c2nn[nH]n2)cc1 [Compound 20, {2-butyl-5-chloro-3-[(2'-(1H-tetrazol-5-yl)biphenyl-4-yl)methyl]-3H-imidazol-4-yl}(6-acetyl-1-oxypyridin-2-yl)methanone] | 89.0%
